In patent US20240116877A1, “KIT KINASE INHIBITORS AND METHODS OF USE THEREOF” (Deciphera Pharmaceuticals, LLC, priority 2021, published 2024):
Read-outs that look alike come from different tables or passages of the source.

How the values were obtained:
c-KIT kinase (uKIT) = c-KIT kinase (uKIT) (Homo sapiens (Human), UniProt P10721); test: Biochemical Assay for uKIT (coupled pyruvate kinase/lactate dehydrogenase assay); conditions: Inhibition of biochemical activity of uKIT kinase; 1 mM ATP
Method in brief: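 IC50 from percent inhibition of reaction rate over 2-3 h, relative to no-compound and known-inhibitor controls. KIT enzyme (16 nM or 4.36 nM, two sequences) ran with 1 mM ATP and 0.7 mg/mL PE4Y in Tris pH 7.5, 30° C; ATP turnover coupled to NADH loss at 340 nm.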

Ba/F3 KIT mutant cells = test: Ba/F3 mutant KIT Cell Proliferation Assays (resazurin); format: cell-based; conditions: Mus musculus, BaF3
Method in brief: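 IC50 values come from resazurin fluorescence (ex 540, em 600) after 5 h dye exposure, added as a 440 μM solution. Cells were IL-3-independent Ba/F3 expressing mutant KIT from a lentiviral vector, puromycin-selected.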

GIST 430 cells = test: GIST 430 Cell Proliferation Assay (resazurin); format: cell-based; conditions: Homo sapiens; GIST430 cell proliferation
Method in brief: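 Five thousand cells per well were exposed to serially diluted compound in complete growth medium for 115 h at 37 degrees Celsius, 5% CO2. Resazurin was then added for a further 5 h, fluorescence read at 540 nm excitation/600 nm emission, and IC50 values calculated.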

[1] = Ba/F3 KIT AYdup-V654A mutant cell proliferation, read-out: AYdup-V654A IC50
[2] = Ba/F3 KIT exon11del-V654A mutant cell proliferation, read-out: exon11del-V654A IC50
[3] = Ba/F3 KIT exon11del-Y823D mutant cell proliferation, read-out: exon11del-Y823D IC50
[4] = Ba/F3 KIT AYdup mutant cell proliferation, read-out: AYdup IC50
[5] = Ba/F3 KIT AYdup-D816G mutant cell proliferation, read-out: AYdup-D816G IC50

c-KIT kinase (uKIT), sequence (P10721 other isoform, or with tags, fused parts or gaps): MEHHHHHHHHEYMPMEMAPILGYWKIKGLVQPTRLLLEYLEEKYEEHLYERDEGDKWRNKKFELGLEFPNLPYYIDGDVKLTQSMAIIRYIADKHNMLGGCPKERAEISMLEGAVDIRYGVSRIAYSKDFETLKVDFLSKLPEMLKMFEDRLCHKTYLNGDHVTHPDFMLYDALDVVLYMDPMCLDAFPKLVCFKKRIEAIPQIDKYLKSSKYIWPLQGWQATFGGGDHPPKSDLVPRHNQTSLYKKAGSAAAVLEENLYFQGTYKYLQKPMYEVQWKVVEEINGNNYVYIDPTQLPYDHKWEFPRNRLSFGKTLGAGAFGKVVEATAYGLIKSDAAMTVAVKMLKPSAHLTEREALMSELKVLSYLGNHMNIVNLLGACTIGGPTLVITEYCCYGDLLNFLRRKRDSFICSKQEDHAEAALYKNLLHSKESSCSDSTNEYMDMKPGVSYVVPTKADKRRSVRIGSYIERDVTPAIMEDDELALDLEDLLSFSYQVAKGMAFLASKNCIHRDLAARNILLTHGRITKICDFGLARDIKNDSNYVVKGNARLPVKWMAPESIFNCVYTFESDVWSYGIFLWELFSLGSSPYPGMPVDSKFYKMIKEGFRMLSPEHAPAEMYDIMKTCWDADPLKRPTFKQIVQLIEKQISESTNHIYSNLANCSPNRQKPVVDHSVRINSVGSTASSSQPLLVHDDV

CC(C)Oc1cc(F)c2c(Nc3ccc(NC(=O)NCCC(C)(C)F)cc3)ncnc2c1 [Example 6, 1-(3-fluoro-3-methylbutyl)-3-(4-((5-fluoro-7-isopropoxyquinazolin-4-yl)amino)phenyl)urea]
IC50 (c-KIT kinase (uKIT)): ≤ 10 nM
IC50 (Ba/F3 KIT mutant cells; [1]): 100 to 1000 nM
IC50 (Ba/F3 KIT mutant cells; [2]): ≤ 10 nM
IC50 (Ba/F3 KIT mutant cells; [3]): 100 to 1000 nM
IC50 (GIST 430 cells): 10 to 100 nM

COCCOc1cc(F)c2c(Nc3ccc(NC(=O)CCC(=O)N(C)C(C)C)cc3)ncnc2c1 [Example 67]
IC50 (c-KIT kinase (uKIT)): 10 to 100 nM
IC50 (Ba/F3 KIT mutant cells; [1]): 100 to 1000 nM
IC50 (Ba/F3 KIT mutant cells; [2]): 10 to 100 nM
IC50 (Ba/F3 KIT mutant cells; [3]): 10 to 100 nM
IC50 (GIST 430 cells): 100 to 1000 nM

CN(C)C(=O)COc1cc(F)c2c(Nc3ccc(NC(=O)NCCC(C)(C)F)cc3)ncnc2c1 [Example 148]
IC50 (c-KIT kinase (uKIT)): 10 to 100 nM
IC50 (Ba/F3 KIT mutant cells; [1]): 100 to 1000 nM
IC50 (Ba/F3 KIT mutant cells; [2]): 10 to 100 nM
IC50 (GIST 430 cells): 100 to 1000 nM

COCCOc1cc(OC)c2c(Nc3ccc(NC(=O)NCCC(C)(C)C#N)cc3)ncnc2c1 [Example 182]
IC50 (c-KIT kinase (uKIT)): 10 to 100 nM
IC50 (Ba/F3 KIT mutant cells; [1]): 10 to 100 nM
IC50 (Ba/F3 KIT mutant cells; [2]): 10 to 100 nM
IC50 (Ba/F3 KIT mutant cells; [3]): 10 to 100 nM
IC50 (GIST 430 cells): 10 to 100 nM

COCCOc1cc(F)c2c(Nc3ccc(NC(=O)NCCN4CCCC4=O)cc3)ncnc2c1 [Example 54]
IC50 (c-KIT kinase (uKIT)): 10 to 100 nM
IC50 (Ba/F3 KIT mutant cells; [4]): 10 to 100 nM
IC50 (Ba/F3 KIT mutant cells; [5]): 100 to 1000 nM
IC50 (Ba/F3 KIT mutant cells; [1]): 100 to 1000 nM
IC50 (Ba/F3 KIT mutant cells; [2]): 100 to 1000 nM
IC50 (Ba/F3 KIT mutant cells; [3]): 100 to 1000 nM
IC50 (GIST 430 cells): 10 to 100 nM

COCCOc1cc(F)c2c(Nc3ccc(NC(=O)CCC(C)(C)OC)cc3)ncnc2c1 [Example 28]
IC50 (c-KIT kinase (uKIT)): 10 to 100 nM
IC50 (Ba/F3 KIT mutant cells; [5]): 10 to 100 nM
IC50 (Ba/F3 KIT mutant cells; [1]): 10 to 100 nM
IC50 (Ba/F3 KIT mutant cells; [2]): 10 to 100 nM
IC50 (Ba/F3 KIT mutant cells; [3]): 100 to 1000 nM
IC50 (GIST 430 cells): 10 to 100 nM

COCCOc1cc(F)c2c(Nc3ccc(NC(=O)NCCC(C)(C)C#N)cc3)ncnc2c1 [Example 26]
IC50 (c-KIT kinase (uKIT)): ≤ 10 nM
IC50 (Ba/F3 KIT mutant cells; [4]): ≤ 10 nM
IC50 (Ba/F3 KIT mutant cells; [5]): ≤ 10 nM
IC50 (Ba/F3 KIT mutant cells; [1]): 10 to 100 nM
IC50 (Ba/F3 KIT mutant cells; [2]): 10 to 100 nM
IC50 (Ba/F3 KIT mutant cells; [3]): 10 to 100 nM
IC50 (GIST 430 cells): 10 to 100 nM

COCCOc1cc(F)c2c(Nc3ccc(NC(=O)CC(=O)NCC(C)(C)OC)cc3)ncnc2c1 [Example 5, N^1-(4-((5-fluoro-7-(2-methoxyethoxy)quinazolin-4-yl)amino)phenyl)-N^3-(2-methoxy-2-methylpropyl)malonamide]
IC50 (c-KIT kinase (uKIT)): 10 to 100 nM
IC50 (Ba/F3 KIT mutant cells; [1]): 10 to 100 nM
IC50 (Ba/F3 KIT mutant cells; [2]): 10 to 100 nM
IC50 (Ba/F3 KIT mutant cells; [3]): > 1000 nM
IC50 (GIST 430 cells): 10 to 100 nM

COCCCOc1cc(F)c2c(Nc3ccc(NC(=O)NCCC(C)(C)F)cc3)ncnc2c1 [Example 120]
IC50 (c-KIT kinase (uKIT)): ≤ 10 nM
IC50 (Ba/F3 KIT mutant cells; [1]): 10 to 100 nM
IC50 (Ba/F3 KIT mutant cells; [2]): ≤ 10 nM
IC50 (Ba/F3 KIT mutant cells; [3]): 100 to 1000 nM
IC50 (GIST 430 cells): 10 to 100 nM

CO[C@H](C)COc1cc(F)c2c(Nc3ccc(NC(=O)NCCC(C)(C)F)cc3)ncnc2c1 [Example 156]
IC50 (c-KIT kinase (uKIT)): ≤ 10 nM
IC50 (Ba/F3 KIT mutant cells; [4]): ≤ 10 nM
IC50 (Ba/F3 KIT mutant cells; [5]): 10 to 100 nM
IC50 (Ba/F3 KIT mutant cells; [1]): 10 to 100 nM
IC50 (Ba/F3 KIT mutant cells; [2]): 10 to 100 nM
IC50 (Ba/F3 KIT mutant cells; [3]): 10 to 100 nM
IC50 (GIST 430 cells): 10 to 100 nM

COCCOc1cc(F)c2c(Nc3ccc(NC(=O)CC(=O)N(C)C(C)C)cc3)ncnc2c1 [Example 74]
IC50 (c-KIT kinase (uKIT)): 10 to 100 nM
IC50 (Ba/F3 KIT mutant cells; [1]): 10 to 100 nM
IC50 (Ba/F3 KIT mutant cells; [2]): 10 to 100 nM
IC50 (Ba/F3 KIT mutant cells; [3]): 100 to 1000 nM
IC50 (GIST 430 cells): 10 to 100 nM

COCCOc1cc(F)c2c(Nc3ccc(NC(=O)COCC(C)C)cc3)ncnc2c1 [Example 49]
IC50 (c-KIT kinase (uKIT)): ≤ 10 nM
IC50 (Ba/F3 KIT mutant cells; [4]): ≤ 10 nM
IC50 (Ba/F3 KIT mutant cells; [5]): 10 to 100 nM
IC50 (Ba/F3 KIT mutant cells; [1]): 100 to 1000 nM
IC50 (Ba/F3 KIT mutant cells; [2]): 10 to 100 nM
IC50 (Ba/F3 KIT mutant cells; [3]): 100 to 1000 nM
IC50 (GIST 430 cells): 10 to 100 nM

COCCOc1cc(F)c2c(Nc3ccc(NC(=O)CC(=O)NC[C@H]4CCCO4)cc3)ncnc2c1 [Example 101]
IC50 (c-KIT kinase (uKIT)): 100 to 1000 nM
IC50 (Ba/F3 KIT mutant cells; [1]): 100 to 1000 nM
IC50 (Ba/F3 KIT mutant cells; [2]): 10 to 100 nM
IC50 (Ba/F3 KIT mutant cells; [3]): > 1000 nM
IC50 (GIST 430 cells): 100 to 1000 nM

COCCOc1cc(F)c2c(Nc3ccc(NC(=O)CC(=O)N[C@H]4C[C@@H](OC)C4)cc3)ncnc2c1 [Example 116]
IC50 (c-KIT kinase (uKIT)): 100 to 1000 nM
IC50 (Ba/F3 KIT mutant cells; [1]): 100 to 1000 nM
IC50 (Ba/F3 KIT mutant cells; [2]): 10 to 100 nM
IC50 (GIST 430 cells): 100 to 1000 nM

COCCOc1cc(F)c2c(Nc3ccc(NC(=O)CC(=O)N4CCC[C@H]4C)cc3)ncnc2c1 [Example 197]
IC50 (c-KIT kinase (uKIT)): 10 to 100 nM
IC50 (Ba/F3 KIT mutant cells; [1]): 10 to 100 nM
IC50 (Ba/F3 KIT mutant cells; [2]): 100 to 1000 nM
IC50 (Ba/F3 KIT mutant cells; [3]): 100 to 1000 nM
IC50 (GIST 430 cells): 10 to 100 nM

COCCOc1cc(F)c2c(Nc3ccc(NC(=O)CC(=O)N4CCCC4C(C)(C)C)cc3)ncnc2c1 (centres unmarked) [Example 189]
IC50 (c-KIT kinase (uKIT)): 10 to 100 nM
IC50 (Ba/F3 KIT mutant cells; [1]): 100 to 1000 nM
IC50 (Ba/F3 KIT mutant cells; [2]): 100 to 1000 nM
IC50 (Ba/F3 KIT mutant cells; [3]): 100 to 1000 nM
IC50 (GIST 430 cells): 100 to 1000 nM

COCCOc1cc(F)c2c(Nc3ccc(NC(=O)CC(=O)NC4(C)COC4)cc3)ncnc2c1 [Example 144]
IC50 (c-KIT kinase (uKIT)): 100 to 1000 nM
IC50 (Ba/F3 KIT mutant cells; [1]): 100 to 1000 nM
IC50 (Ba/F3 KIT mutant cells; [2]): 100 to 1000 nM
IC50 (GIST 430 cells): 100 to 1000 nM

COCCOc1cc(F)c2c(Nc3ccc(NC(=O)CC(=O)NCC4(C)COC4)cc3)ncnc2c1 [Example 132]
IC50 (c-KIT kinase (uKIT)): 10 to 100 nM
IC50 (Ba/F3 KIT mutant cells; [1]): 100 to 1000 nM
IC50 (Ba/F3 KIT mutant cells; [2]): 10 to 100 nM
IC50 (GIST 430 cells): 100 to 1000 nM
